Results on twelve molecules are retold here after US6040338A, “N,n-bis(sulfonyl)hydrazines useful as antineoplastic agents” (Yale University, priority 1997, dated 2000).

Series [1] concerns GSH/GST. In words: Relative rate of activation by GSH/GST in vitro. The format is in vitro ADME. Conditions: GSH 1 mM, GST 400 μg/ml; for Relative Activation Rate by GSH/GST: 1 mM compound, compound 6 = 100. The protocol: When R^3 is a methyl group, the rate of activation by GSH/GST is highly dependent upon the nature of the 2-alkoxy- or 2-aryloxycarbonyl moiety at the R^4 position.
The rate of activation of 2-(2-bromoethoxy)carbonyl-1,2-bis(methylsulfonyl)-1-methylhydrazine (compound 8) was elevated approximately 18-fold in vitro by the presence of GSH (1 mM) and GST (400 μg/ml), compared to buffer alone.

The nature of series [2]: Activation by hydrolysis in phosphate buffer. The format is physicochemical. Conditions: 1 mM phosphate buffer, pH 7.4, 37° C. How it is done:
(§1) The rates of activation of compounds 10a-h were measured in 1 mM phosphate buffer (pH 7.4, 37° C.) alone, 1 mM phosphate buffer containing 5 mM GSH (pH 7.4, 37° C.), and in 1 mM phosphate buffer containing 5 mM GSH and 17.5 U/ml of GST (pH 7.4, 37° C.) (Table 3).

Series [3] is described as follows: Activation by thiolysis (GSH). The format is in vitro ADME. As to conditions: 1 mM phosphate buffer, 5 mM GSH, pH 7.4, 37° C. How it is done: as §1
Series [4] deals with GST. The experiment in a line: Activation by GST-catalyzed thiolysis. Format: in vitro ADME. As to conditions: 1 mM phosphate buffer, 5 mM GSH, 17.5 U/ml GST, pH 7.4, 37° C. The protocol:
as §1

Series [5] relates to L1210 leukemia. In words: Survival time and body weight of mice bearing the L1210 leukemia. Format: in vivo, mice (CD2 F1). Conditions: for Av Δ wt (average percent change in body weight from onset to termination of therapy) / % 60-day survivors: Table 4; for Av Δ wt (average percent change in body weight from onset to termination of therapy): i.p. once daily for 6 days at optimum daily dose (10a 60, 10b 25, 10c 12.5, 10d-h 30 mg/kg); for % 60-day survivors: i.p. once daily for 6 days at optimum daily dose (30 mg/kg for 10d-g); for % Body Weight Change / Average Survival / T/C / Long Term Survival: Table 5; for Long Term Survival: survivors/animals. How it is done:
The ascites cell form of leukemia L1210 was obtained from the Frederick Cancer Research Facility, Division of Cancer Treatment Tumor Repository of the National Cancer Institute, and was maintained by serial passage in tissue culture. Every 8 weeks, tumor cells were injected intraperitoneally into 5 donor CD2 F1 mice 8-10 weeks of age and were allowed to grow for 7 days. The peritoneal fluid was withdrawn, and the suspension was centrifuged for 5 min at 1600×g. The supernatant was decanted, and 10^5 cells/ml were seeded into 10 ml of RPMI 1640 medium supplemented with 10% fetal bovine serum and 1% L-glutamine (200 mM) and once again maintained in culture. To assay for antitumor activity, 0.1 ml of the cell suspension containing 10^5 leukemia cells was injected into each recipient mouse. […] Each drug was administered intraperitoneally as a solution in 100% dimethyl sulfoxide, in a volume not exceeding 25 μl. […] Mice were weighed during the course of the experiments, and the percentage change in body weight from onset to termination of therapy was used as an indication of drug toxicity. Determination of the sensitivity of neoplasms to these agents was based upon the prolongation of survival time afforded by the drug treatments.
The antitumor activity of compounds 10a-h and 16 were assessed in mice bearing the L1210 leukemia. The results of these tests are summarized in Tables 4 and 5 which show the effects of 2-alkoxycarbonyl- and 2-aryloxycarbonyl-1,2-bis(methylsulfonyl)-1-(2-chloroethyl)hydrazines on the survival time of mice bearing the L1210 leukemia.
In Table 4, the optimum daily dose was administered once per day for six consecutive days, beginning 24 hours after tumor implantation, with 5-10 mice being used per group. In Table 5, multiple dosages of compound 16 are indicated. "Av Δ wt" refers to the average percent change in body weight from onset to termination of therapy. "% T/C" refers to the average survival time of treated/control mice×100. Cures (60-day survivors) are listed separately and are not included in this calculation.

Series [6] concerns EMT6 mammary carcinoma cells. The experiment in a line: Colony-forming assay, EMT6 cells under hypoxic or aerobic conditions. The format is cell-based, mouse. Conditions: 1 hr. How it is done: The ability of compounds 10h, 11, 12, and 14 to exert preferential toxicity to hypoxic cells was evaluated using the EMT6 mammary carcinoma by methodology described previously (Rockwell, S., Keyes, S. R., and Sartorelli, A. C. Rad. Res. 116: 100-113 (1988); Keyes, S. R., Rockwell, S., and Sartorelli, A. C. Cancer Res. 45: 213-216 (1985)). Briefly, exponentially growing monolayers of EMT6 (or CHO-K1/dhfr clone) were exposed to a continuously flowing 95% N2 /5% CO2 humidified atmosphere for 2 h to produce radiobiologic hypoxia. Parallel flasks were maintained similarly in humidified 95% air/5% CO2. Without breaking the hypoxia, cells were exposed to various concentrations of the test agent for 1 hr. Cell survival was then measured by colony formation.
The cytotoxicity of compound 10h was evaluated against EMT6 mouse mammary carcinoma cells in vitro under aerobic and hypoxic conditions using the colony-forming assay described above. FIG. 1 depicts the survival of EMT6 cells exposed to various concentrations of compound 10h for 1 hr under hypoxic or aerobic conditions in vitro. Points are the geometric means of two or more independent determinations of surviving fractions. The SEMs are shown where n≥3 and where the error is larger than the point size. Open triangles represent aerobic data points and filled triangles represent hypoxic data points.
Compound 12 was evaluated for its ability to exert preferential toxicity to hypoxic EMT6 cells relative to their aerobic counterparts. […] Points are geometric means of two or more independent determinations of surviving fractions. The SEMs are shown where n≥3 and where the error is larger than the point size. Open triangles are aerobic data points, and filled triangles are hypoxic data points. […] Points are means of duplicate determinations. Open triangles are parental-aerobic; filled triangles are parental-hypoxic; open circles are NADPH:cytochrome P450 reductase-transfected-aerobic; filled circles are NADPH:cytochrome P450 reductase-transfected-hypoxic.

Entries after “also recorded” stand apart in the source; their conditions may differ. Where a name gives a salt, the structure may show the parent alone.

Consider `CCOC(=O)N(N(C)S(C)(=O)=O)S(C)(=O)=O` [Compound 7, 1,2-Bis(methylsulfonyl)-2-(ethoxycarbonyl)-1-methylhydrazine], for which the “Relative Activation Rate by GSH/GST” value in series [1] turned out to be 30.

On to `CN(N(C(=O)OCCBr)S(C)(=O)=O)S(C)(=O)=O` [Compound 8, 1,2-Bis(methylsulfonyl)-2-(2-bromoethoxycarbonyl)-1-methylhydrazine], for which the “Relative Activation Rate by GSH/GST” value in series [1] worked out at 300. Also, the “elevation of rate of activation by GSH and GST compared to buffer alone” value in series [1] (in vitro) is “approximately 18 fold”.

`COC(=O)N(N(CCCl)S(C)(=O)=O)S(C)(=O)=O` [Compound 10a, 1,2-Bis(methylsulfonyl)-1-(2-chloroethyl)-2-(methoxycarbonyl)hydrazine]: the “Calculated Activation Rate due to Hydrolysis” value in series [2] is 0.03 nmol/mL/min. Further, the “Calculated Activation Rate due to Thiolysis (5 mM GSH)” value in series [3] was 0.02 nmol/mL/min. Moreover, the “Calculated Activation Rate due to Catalyzed Thiolysis (5 mM GSH + 17.5 U/ml GST)” value in series [4] is 0.00 nmol/mL/min. Further, in series [5], the “Av Δ wt (average percent change in body weight from onset to termination of therapy)” value is listed as -10.9%.

Take `CS(=O)(=O)N(CCCl)N(C(=O)OCCCl)S(C)(=O)=O` [Compound 10b, 1,2-Bis(methylsulfonyl)-1-(2-chloroethyl)-2-(2-chloroethoxycarbonyl)hydrazine]: the “Calculated Activation Rate due to Hydrolysis” value in series [2] is 0.02 nmol/mL/min. The “Calculated Activation Rate due to Thiolysis (5 mM GSH)” value in series [3] was 0.02 nmol/mL/min. The “Calculated Activation Rate due to Catalyzed Thiolysis (5 mM GSH + 17.5 U/ml GST)” value in series [4] was 0.08 nmol/mL/min. Further, the “Av Δ wt (average percent change in body weight from onset to termination of therapy)” value in series [5] is reported as -10.7%.

On to `C=COC(=O)N(N(CCCl)S(C)(=O)=O)S(C)(=O)=O` [Compound 10c, 1,2-Bis(methylsulfonyl)-1-(2-chloroethyl)-2-(vinyloxycarbonyl)hydrazine], for which the “Calculated Activation Rate due to Hydrolysis” value in series [2] is 0.07 nmol/mL/min. In addition, in series [3], the “Calculated Activation Rate due to Thiolysis (5 mM GSH)” value was 2.07 nmol/mL/min. Also, the “Calculated Activation Rate due to Catalyzed Thiolysis (5 mM GSH + 17.5 U/ml GST)” value in series [4] is 4.70 nmol/mL/min. In addition, in series [5], the “Av Δ wt (average percent change in body weight from onset to termination of therapy)” value is -12.4%.

Consider `CS(=O)(=O)N(CCCl)N(C(=O)Oc1ccccc1)S(C)(=O)=O` [Compound 10d, 1,2-Bis(methylsulfonyl)-1-(2-chloroethyl)-2-(phenoxycarbonyl)hydrazine], for which the “Calculated Activation Rate due to Hydrolysis” value in series [2] is 0.06 nmol/mL/min. Also, the “Calculated Activation Rate due to Thiolysis (5 mM GSH)” value in series [3] was 0.37 nmol/mL/min. For the same molecule, the “Calculated Activation Rate due to Catalyzed Thiolysis (5 mM GSH + 17.5 U/ml GST)” value in series [4] was 1.80 nmol/mL/min. Besides, in series [5], the “% 60-day survivors” value turned out to be 40% and the “Av Δ wt (average percent change in body weight from onset to termination of therapy)” value is listed as -1.0%.

Consider `Cc1ccc(OC(=O)N(N(CCCl)S(C)(=O)=O)S(C)(=O)=O)cc1` [Compound 10e, 1,2-Bis(methylsulfonyl)-1-(2-chloroethyl)-2-[(4-tolyloxy)carbonyl]hydrazine], for which the “Calculated Activation Rate due to Hydrolysis” value in series [2] was 0.02 nmol/mL/min. For the same molecule, in series [3], the “Calculated Activation Rate due to Thiolysis (5 mM GSH)” value is 0.45 nmol/mL/min. In series [4], the “Calculated Activation Rate due to Catalyzed Thiolysis (5 mM GSH + 17.5 U/ml GST)” value was 1.52 nmol/mL/min. Besides, in series [5], the “% 60-day survivors” value is on record as 20% and the “Av Δ wt (average percent change in body weight from onset to termination of therapy)” value is given as -3.0%.

On to `CS(=O)(=O)N(CCCl)N(C(=O)Oc1ccc(Cl)cc1)S(C)(=O)=O` [Compound 10f, 1,2-Bis(methylsulfonyl)-1-(2-chloroethyl)-2-[(4-chlorophenoxy)carbonyl]hydrazine], for which the “Calculated Activation Rate due to Hydrolysis” value in series [2] was 0.06 nmol/mL/min. For the same molecule, in series [3], the “Calculated Activation Rate due to Thiolysis (5 mM GSH)” value is 0.92 nmol/mL/min. For the same molecule, the “Calculated Activation Rate due to Catalyzed Thiolysis (5 mM GSH + 17.5 U/ml GST)” value in series [4] was 5.33 nmol/mL/min. In series [5], the “% 60-day survivors” value turned out to be 80% and the “Av Δ wt (average percent change in body weight from onset to termination of therapy)” value is listed as -1.1%.

Consider `COc1ccc(OC(=O)N(N(CCCl)S(C)(=O)=O)S(C)(=O)=O)cc1` [Compound 10g, 1,2-Bis(methylsulfonyl)-1-(2-chloroethyl)-2-[(4-methoxyphenoxy)carbonyl]hydrazine], for which the “Calculated Activation Rate due to Hydrolysis” value in series [2] is 0.14 nmol/mL/min. Besides, in series [3], the “Calculated Activation Rate due to Thiolysis (5 mM GSH)” value is 0.41 nmol/mL/min. Besides, the “Calculated Activation Rate due to Catalyzed Thiolysis (5 mM GSH + 17.5 U/ml GST)” value in series [4] was 1.80 nmol/mL/min. Moreover, in series [5], the “% 60-day survivors” value is 40% and the “Av Δ wt (average percent change in body weight from onset to termination of therapy)” value was -2.5%.

Turning to `CS(=O)(=O)N(CCCl)N(C(=O)OCc1ccccc1)S(C)(=O)=O` [Compound 11, 2-Benzyloxycarbonyl-1,2-bis(methylsulfonyl)-1-(2-chloroethyl)hydrazine], in series [6] (hypoxic or aerobic (FIG. 2)), the “toxicity to EMT6 cells, aerobic versus hypoxic (in words)” value is reported as “essentially equitoxic to EMT6 cells under both conditions of oxygenation”.

With `CC(OC(=O)N(N(CCCl)S(C)(=O)=O)S(C)(=O)=O)c1ccc([N+](=O)[O-])cc1` (centres unmarked) [Compound 14, 1,2-Bis(methylsulfonyl)-1-(2-chloroethyl)-2-[[1-(4-nitrophenyl)ethoxy]carbonyl]hydrazine], in series [6] (aerobic (FIG. 7 versus FIG. 1)), the “toxicity to aerobic EMT6 cells compared with compound 10h (in words)” value was “less toxic to aerobic EMT6 cells than compound 10h”. The “toxicity to hypoxic EMT6 cells compared with compound 10h (in words)” value in series [6] (hypoxic (FIG. 7 versus FIG. 1)) was “essentially the same as that of compound 10h”.

Usually T/C stands for the result in the treated group divided by that in the control group, in per cent. Regarding `CS(=O)(=O)N(CCCl)N(C(=O)OCOP(=O)(O)O)S(C)(=O)=O` [Compound 16, triethanolamine salt of the free acid acid of O-dibenzylphosphate-methyl carbamate], in series [5] (multiple dose 6 × 10 mg/kg), the “% Body Weight Change” value was -3.6%, the “Average Survival” value was 14.7 days, the T/C is reported as 184% and the “Long Term Survival” value is 2/5. Besides, in series [5] (multiple dose 6 × 20 mg/kg), the “% Body Weight Change” value is listed as “+2.5%”, the “Average Survival” value is 19.5 days, the T/C came to 244% and the “Long Term Survival” value is recorded as 3/5. For the same molecule, in series [5] (multiple dose 6 × 40 mg/kg), the “% Body Weight Change” value is listed as “+3.7%” and the “Long Term Survival” value is 5/5. In series [5] (multiple dose 6 × 60 mg/kg), the “% Body Weight Change” value is -23.2%, the “Average Survival” value was 11.0 days, the T/C is on record as 138% and the “Long Term Survival” value is 3/5. Also, the “activity against the L1210 leukemia (in words)” value in series [5] (i.p. once daily for 6 days) is on record as “significant activity against the L1210 leukemia tumor; also recorded: significant antitumor activity”.
